Measured values from US9107889B2, “Compositions comprising an NO donor and a dithiolane and their use for improvement of sexual function” (Encrypta GmbH, priority 2005, dated 2015).

Experiments:
[1] = system: erectile dysfunction (ED); experiment: Clinical case reports: erectile function, International Index of Erectile Function (IIEF) score; type: in vivo, human
From the text: ED is clinically assessed by the application of the International Index of Erectile Function (IIEF Scale). The scale consists of 5 items related to erectile function scored from never (1 points) to always (5 points). 21-25 points translate to the absence of ED, 16-20 points relate to a mild ED, 11-15 points relate to a moderate ED and 5-10 points translate to a severe ED.
(§1) A person suffered since 3 months from worsening of erection (reduction of penile tension) and of a slight reduction of libido. Their IIEF count at the examination was 9. All biochemical parameters and hormones were within the normal range. The Doppler sonography of the penile vessels was normal. A challenge test with Silfenadil was positive, thereby excluding an organic pathology of the erectile dysfunction (ED). […] Psychogenic ED was diagnosed after examination. […] Arginine (5 g) and 600 mg α-lipoic acid were taken orally 30 minutes prior intercourse. After therapy, erection normalized. The IIEF score improved from 9 to 21 points.
A person complained since a week about insufficient erection. The person started sexual life with regularly intercourse twice a week. 3 months ago, they changed the sexual partner. At the 1st intercourse with the new partner, they experienced overexcitement. Since that time erection worsened, with an IIEF score of 8 points. The biochemical and hormonal values were within the normal range. The diagnosis was psychogenic ED and failure expectation syndrome. […] After change to 4 g arginine and 300 mg α-lipoic acid, the erection improved. The IIEF score improved from 8 to 12 points. In the meantime, the patient changed to chronic intake of 1 g arginine+100 mg α-lipoic acid daily. Occasionally, they take on demand prior intercourse additional 4 g arginine+300 mg α-lipoic acid.
(§2) A patient complained about worsening of erection since 7 years. Sexual intercourse was only possible in selected position. In addition, they suffered from premature ejaculation. Their libido remained intact. The IEFF score at diagnosis was 11. The diagnosis was physical ED and premature ejaculation. 600 mg α-lipoic acid was given as single dose and arginine was given in 4 single doses over the day of 2 g. The erection improved and the intercourse was prolonged from 1-2 minutes to 7 minutes. The IEFF score changed from 11 to 15 points. The 4 single doses have been changed to a single dose of 10 g arginine, taken together with the α-lipoic acid.
A patient (company manager with associated psychological stress) complained about reduced erection and reduced libido since the last 13 years. The morning reactions retained. […] The diagnosis was psychogenic ED and manager syndrome. […] The IIEF score improved from 9 to 24 points. For chronic intake, the daily dose of arginine has been reduced to 2 g, with no change of the α-lipoic acid intake.
(§3) A patient complained about worsening of erection and premature ejaculation. After administration of Silfenadil and Verdenafil, the erection improved; however, the premature ejaculations remained. The diagnosis was psychogenic ED and premature ejaculation. […] However, 200 mg thioctic acid together with 10 g arginine led to an improvement of the IIEF from 8 to 20 points. The duration of intercourse was extended from 1 to 4 minutes.

premature ejaculation = experiment: Clinical case reports: duration of intercourse / premature ejaculation; type: in vivo, human; details: Case 5; Silfenadil and Verdenafil
Protocol: as §2, §3
A person was able to perform intercourse only after nasal intake of isoamylnitrite since 5 years. However, intercourse was still unsatisfactory due to unpredictable erections and premature ejaculations. The diagnosis was physical erectile dysfunction and premature ejaculation. […]

[2] = system: erectile dysfunction (ED); experiment: Challenge test with Silfenadil; type: in vivo, human; details: Case 1; positive excludes organic pathology of ED
Protocol: as §1

[3] = Adverse events in the clinical cases; type: in vivo, human; details: Case 1
Protocol: as §1
None of the cases reported adverse events due to the intake of the combination partners. Attributes of cardiovascular dysfunction were not observed. Acutely, oral liquid presentations were applied, chronically both liquid and solid presentations.

[4] = cited from earlier work
loss of libido in women = experiment: Clinical case report: female sexual function (libido, orgasm, IFSF questionnaire); type: in vivo, human; details: Case 6; arginine alone 3 g daily increased to 10 g
From the text: Female sexual function can be assessed by the Index of Female Sexual Function (IFSF), a 9-item self-assessment questionnaire. The IFSF is much more comprehensive in respect of sexual function assessment compared to the IIEF. Parameters to be assessed are discomfort during intercourse, degree of vaginal dryness, number of attempts to intercourse, rate and degree of sexual desire, level of satisfaction with sex life and relationship, degree of clitoral sensation and quality of orgasm.
A person experienced loss of libido after they have born their first child. Intercourse was often painful due to diminished […]. […] Since two years, they regularly attend with their spouse marriage counseling. […] The dose was increased weekly by 100 mg. […] The ISFS questionnaire improved (10 points). They reported that their partnership has improved. Marriage counseling has been aborted.

## CCCc1nn(C)c2c(=O)[nH]c(-c3cc(S(=O)(=O)N4CCN(C)CC4)ccc3OCC)nc12 [Silfenadil]
[1]; Case 5, psychogenic ED and premature ejaculation, Silfenadil and Verdenafil
  erection after administration: improved
Premature ejaculation
  premature ejaculations after administration: remained
[2]
  challenge test result: positive
[3]
  side effect evoked by administration: severe redness of face

## O=C(O)CCCCC1CCSS1 (stereo not drawn) [α-lipoic acid]
[1]; Case 1, psychogenic ED, baseline IIEF 9, oral intake of 600 mg α-lipoic acid alone
  change of IIEF score: did not change
[1]; Case 4, psychogenic ED, single dose 200 mg α-lipoic acid alone
  effect on erection: without any effect
[1]; Case 4, α-lipoic acid alone increased to 600 mg
  effect on erection: did improve the situation
[4]
  pKa: 5.3

## N=C(N)NCCC[C@H](N)C(=O)O [arginine]
[1]; Case 2, psychogenic ED, baseline IIEF 8, oral intake of 4 g arginine alone
  change of IIEF score: did not change
[1]; Case 5, 10 g arginine on top of basic treatment (Silfenadil, Verdenafil)
  effect on ED / premature ejaculation: without any effect
Loss of libido in women
  effect on loss of libido / absent orgasm: did not improve the situation
